The values below come from patent publication US20100331348A1, “TROPANE DERIVATIVES USEFUL AS PESTICIDES” (SYNGENTA CROP PROTECTION, INC., priority 2007, published 2010).

The experiment relates to Erysiphe graminis f.sp. tritici. Kind of experiment: Erysiphe graminis f.sp. tritici (wheat powdery mildew) leaf disk assay. It is filed as in vivo. The note with it: Blumeria graminis, foliar, 96 h, preventive, four days after inoculation, read-out: control of fungal infection, Erysiphe graminis fsp. tritici.
On to `CCc1ncnc(N2[C@@H]3CC[C@H]2CC(Oc2ccccc2-c2nnc(C(C)(C)C)o2)C3)c1Cl` (stereo partly drawn) [Example 2.190], for which the pest or weed control at 200 ppm is ≥ 80%. The same measure for `Cc1nsc(Oc2ccc(OC3C[C@H]4CC[C@@H](C3)N4c3ncnc4scc(C)c34)cc2)n1` (stereo partly drawn) [Example 2.72]: ≥ 80%; for `CCc1ncnc(N2C3CCC2CC(=NOc2nc(SC)nc(Cl)c2-c2ccccc2)C3)c1Cl` [Example 5.125]: ≥ 80%. In the case of `Cc1cc(Cl)nc(CON=C2CC3CCC(C2)N3c2ncnc3sccc23)n1` [Example 5.132], the pest or weed control at 200 ppm is ≥ 80%.

As to `CCc1ncnc(N2C3CCC2CC(=NOc2cc(OC)nc(OC)n2)C3)c1Cl` [Example 5.97], the pest or weed control at 200 ppm was ≥ 80%.

Turning to `CCc1ncnc(N2[C@@H]3CC[C@H]2CC(Oc2c(C(C)=O)cc(Cl)c4ccccc24)C3)c1Cl` (stereo partly drawn) [Example 2.187], the pest or weed control at 200 ppm was ≥ 80%. Consider `CCc1ncnc(N2[C@@H]3CC[C@H]2CC(Oc2ccc(Br)cc2C(C)=O)C3)c1Cl` (stereo partly drawn) [Example 2.182], for which the pest or weed control at 200 ppm is ≥ 80%. To `CCc1ncnc(N2[C@@H]3CC[C@H]2CC(Oc2ccc(C)cc2)C3)c1Cl` (stereo partly drawn) [Example 1.162] belongs ≥ 80%; to `CC(C)(C)c1ccc(OC2C[C@H]3CC[C@@H](C2)N3c2ncnc3sccc23)cc1` (stereo partly drawn) [Example 2.26], ≥ 80%.

`CCc1nc(Cl)c(CC)c(ON=C2CC3CCC(C2)N3c2ncnc3sccc23)n1` [Example 5.194]: the pest or weed control at 200 ppm is ≥ 80%. To `ON=C1CC2CCC(C1)N2c1ncnc2sccc12` [Example 5.127] belongs ≥ 80%. To `CSc1ccc(OC2C[C@H]3CC[C@@H](C2)N3c2ncnc3sccc23)cc1C` (stereo partly drawn) [Example 2.41] belongs ≥ 80%; to `Cc1c(CON=C2CC3CCC(C2)N3c2ncnc3sccc23)ccc2ccccc12` [Example 5.176], ≥ 80%; to `c1nc(C2C[C@H]3CC[C@@H](C2)N3c2ncnc3sccc23)c2ccsc2n1` (stereo partly drawn) [Example 2.28], ≥ 80%.

Regarding `Cc1ccc(-c2nc(Cl)c(C)c(OC3C[C@H]4CC[C@@H](C3)N4c3ncnc4sccc34)n2)cc1` (stereo partly drawn) [Example 1.97], the pest or weed control at 200 ppm is ≥ 80%. The same measure for `CCc1ncnc(N2[C@@H]3CC[C@H]2CC(Oc2cccc(Oc4nc(C)ns4)c2)C3)c1Cl` (stereo partly drawn) [Example 2.89]: ≥ 80%. For the molecule `Fc1cccc(OC2C[C@H]3CC[C@@H](C2)N3c2ncnc3sccc23)c1F` (stereo partly drawn) [Example 2.24], the pest or weed control at 200 ppm was ≥ 80%. The same measure for `Cc1c(Cl)ncnc1N1[C@@H]2CC[C@H]1CC(Oc1cccc(C(F)(F)F)n1)C2` (stereo partly drawn) [Example 2.94]: ≥ 80%; for `CCC(=O)c1cc(F)c(OC2C[C@H]3CC[C@@H](C2)N3c2ncnc(CC)c2Cl)c(F)c1` (stereo partly drawn) [Example 2.207]: ≥ 80%; for `CCc1ncnc(N2[C@@H]3CC[C@H]2CC(Oc2ccc(Br)cc2C)C3)c1Cl` (stereo partly drawn) [Example 1.180]: ≥ 80%. On to `CC(=O)c1cc(Cl)c2ccccc2c1OC1C[C@H]2CC[C@@H](C1)N2c1ncnc2sccc12` (stereo partly drawn) [Example 2.59], for which the pest or weed control at 200 ppm is ≥ 80%. The same measure for `Fc1ccc(OC2C[C@H]3CC[C@@H](C2)N3c2ncnc3sccc23)cc1` (stereo partly drawn) [Example 2.11]: ≥ 80%; for `CCc1ncnc(N2[C@@H]3CC[C@H]2CC(Oc2ccc(C(C)(C)c4ccc(O)cc4)cc2)C3)c1Cl` (stereo partly drawn) [Example 2.131]: ≥ 80%. To `CCc1ncnc(N2[C@@H]3CC[C@H]2CC(Oc2cccc(F)c2)C3)c1Cl` (stereo partly drawn) [Example 2.117] belongs ≥ 80%; to `Cc1nc(ON=C2CC3CCC(C2)N3c2ncnc3sccc23)cc(N(C)C)n1` [Example 5.209], ≥ 80%. Take `C#CCON=C1CC2CCC(C1)N2c1ncnc(C(C)c2ncnc(CC)c2Cl)c1Cl` (stereo not drawn) [Example 5.49]: the pest or weed control at 200 ppm is ≥ 80%. The same measure for `COc1cc(OC2C[C@H]3CC[C@@H](C2)N3c2ncnc3sccc23)cc(OC)c1OC` (stereo partly drawn) [Example 1.13]: ≥ 80%.

For the molecule `c1ccc(-c2nnco2)c(OC2C[C@H]3CC[C@@H](C2)N3c2ncnc3sccc23)c1` (stereo partly drawn) [Example 2.68], the pest or weed control at 200 ppm is ≥ 80%. On to `Cc1ccc(C(C)(C)C)c(OC2C[C@H]3CC[C@@H](C2)N3c2ncnc3sccc23)c1` (stereo partly drawn) [Example 2.43], for which the pest or weed control at 200 ppm is ≥ 80%. The same measure for `CCc1nc(Cl)c(C)c(ON=C2CC3CCC(C2)N3c2ncnc3sccc23)n1` [Example 5.171]: ≥ 80%; for `CCOc1cc(C)ccc1OC1C[C@H]2CC[C@@H](C1)N2c1ncnc(CC)c1Cl` (stereo partly drawn) [Example 2.126]: ≥ 80%. To `Cc1ccc(-c2c(C)cccc2C)c(C)c1OC1C[C@H]2CC[C@@H](C1)N2c1ncnc2sccc12` (stereo partly drawn) [Example 2.49] belongs ≥ 80%. To `COc1ccccc1OC1C[C@H]2CC[C@@H](C1)N2c1ncnc2sccc12` (stereo partly drawn) [Example 2.4] belongs ≥ 80%.

In the case of `CCc1ncnc(N2[C@@H]3CC[C@H]2CC(Oc2ccc(C(C)(C)C)cc2C(C)(C)C)C3)c1Cl` (stereo partly drawn) [Example 1.221], the pest or weed control at 200 ppm is ≥ 80%. To `CCc1ncnc(N2C3CCC2CC(=NOCc2cc(F)cc(C(F)(F)F)c2)C3)c1Cl` [Example 5.96] belongs ≥ 80%; to `FC(F)(F)c1ccnc(OC2C[C@H]3CC[C@@H](C2)N3c2ccnc3cc(Cl)ccc23)c1` (stereo partly drawn) [Example 2.192], ≥ 80%. To `CCc1ncnc(N2[C@@H]3CC[C@H]2CC(Oc2ccccc2C(F)(F)F)C3)c1Cl` (stereo partly drawn) [Example 2.146] belongs ≥ 80%; to `FC(F)(F)c1cc(CON=C2CC3CCC(C2)N3c2ncnc3sccc23)cc(C(F)(F)F)c1` [Example 5.186], ≥ 80%. The same measure for `Fc1c(F)c(F)c(OC2C[C@H]3CC[C@@H](C2)N3c2ncnc3sccc23)c(F)c1F` (stereo partly drawn) [Example 2.38]: ≥ 80%. For `N#Cc1ccc(OC2C[C@H]3CC[C@@H](C2)N3c2ncnc3sccc23)cc1` (stereo partly drawn) [Example 2.22], the pest or weed control at 200 ppm is ≥ 80%. Consider `CCc1ncnc(N2C3CCC2CC(=NOCc2ccccc2CCl)C3)c1Cl` [Example 5.42], for which the pest or weed control at 200 ppm was ≥ 80%. On to `CCc1ncnc(C(C)c2ncnc(N3C4CCC3CC(=NOCc3ccc(F)cc3)C4)c2Cl)c1Cl` (stereo not drawn) [Example 5.102], for which the pest or weed control at 200 ppm was ≥ 80%. To `CCc1ncnc(N2C3CCC2CC(=NOCc2cc(F)c(F)c(C(F)(F)F)c2)C3)c1Cl` [Example 5.103] belongs ≥ 80%. On to `COc1nc(-c2ccc(C)cc2)nc(ON=C2CC3CCC(C2)N3c2ncnc3sccc23)c1C` [Example 5.251], for which the pest or weed control at 200 ppm is ≥ 80%. To `CCc1ncnc(N2[C@@H]3CC[C@H]2CC(Oc2cccc(C(F)(F)F)c2F)C3)c1Cl` (stereo partly drawn) [Example 2.148] belongs ≥ 80%; to `CCCCCCOc1ccc(OC2C[C@H]3CC[C@@H](C2)N3c2ncnc(CC)c2Cl)cc1` (stereo partly drawn) [Example 1.140], ≥ 80%; to `CCc1ncnc(N2C3CCC2CC(=NOCc2ccc(C(C)(C)C)cc2)C3)c1Cl` [Example 5.26], ≥ 80%. Take `FC(F)(F)c1ccc(Cl)c(CON=C2CC3CCC(C2)N3c2ncnc3sccc23)c1` [Example 5.195]: the pest or weed control at 200 ppm was ≥ 80%.
